Reference: US20070009537A1, “Antimicrobial activity of antibodies producing reactive oxygen species” (priority 2002, published 2007)
Entries after “also recorded” stand apart in the source; their conditions may differ. Like-named read-outs stand apart in the source and are kept apart here.

What was measured:
E. coli = experiment: Bactericidal assay (CFU recovery), strain not specified; type: cell-based
Protocol: (§1) In a typical experiment, a culture of E. coli (in log phase growth, OD600=0.2-0.3) was repeatedly pelleted (3×3,500 rpm) and resuspended in PBS (pH 7.4). The PBS suspended cells were then added to glass vials and cooled to 4° C. Hematoporphyrin IX (40 μM) and antibody (20 μM) were added and the vials were either placed on a light box (visible light, 2.8 mW cm^−2) or in the dark at 4° C. and incubated for 1 h. Viability was determined by recovery of colony forming units (CFUs) on agar plates. Each experiment was performed at least in duplicate.
as §1, with “washed in PBS by pelleting” for “pelleted”, “rpm) the cells” for “rpm)”, “resuspending them” for “resuspended”

S. typhimurium = experiment: Bactericidal assay (CFU recovery); type: cell-based, Salmonella typhimurium
Protocol: In a typical experiment, a culture of S. typhimurium in log phase growth at OD600=0.2-0.3 was repeatedly pelleted (3×3,500 rpm) and resuspended in PBS (pH 7.4). The PBS suspended cells were then added to glass vials and cooled to 4° C. hematoporphyrin IX solution (40 μM) and antibody (20 μM) were added. The vials were placed either on a light box (visible light, 2.8 mW cm^−2) or in the dark at 4° C. Incubation was for 1 hour. Viability was determined by recovery of colony forming units (CFUs) on agar plates. Each experiment was performed with at least duplicate samples.

[1] = H2O2 production by UV irradiation of antibody/protein samples (Amplex Red assay); type: biochemical
Protocol: Aliquots (10 μL) were removed at timed intervals throughout the assay. H2O2 concentration was determined by the amplex red method. Each data point is reported as the mean±SEM of at least duplicate measurements: • polyclonal (poly) immunoglobulin (Ig) G, human; O poly-IgG, horse; □ poly-IgG, sheep; ∇ monoclonal (m) IgG (WD1-6G6), murine; Δ poly-IgM, human; ⋄ mIgG (92H2), murine; ▪ β-galactosidase (β-gal); ▴ chick ovalbumin (OVA); ▾ α-lactalbumin (α-lact); ♦ bovine serum albumin (BSA).
An aliquot (20 μl) from the protein solution was removed and added into a well of a 96-well microtiter plate (Costar) containing reaction buffer (80 μl). Working solution (100 μl/400 μM Amplex Red reagent 1/2 units/ml horseradish peroxidase) was then added, and the plate was incubated in the dark for 30 min. The fluorescence of the well components was then measured using a CytoFluor Multiwell Plate Reader (Series 4000, PerSeptive Biosystems, Framingham, Mass.; Ex/Em: 530/580 nm). The hydrogen peroxide concentration was determined using a standard curve. All experiments were run in duplicate, and the rate is quoted as the mean of at least two measurements.
The resultant solution was transferred to a glass, screw-cap vial and irradiated with UV light for 30 min. The concentration of H2O2 was determined after 30 min.

E. coli XL1-blue = experiment: Bactericidal assay (CFU recovery); type: cell-based
Protocol: as §1
as §1, with “washed in PBS by pelleting” for “pelleted”, “rpm) the cells” for “rpm)”, “resuspending them” for “resuspended”

E. coli O112a,c = type: cell-based; settings: 40 μM, white light 2.7 mW cm^−2, 1 h, PBS pH 7.4, 4±1° C.
Protocol: as §1
as §1, with “washed in PBS by pelleting” for “pelleted”, “rpm) the cells” for “rpm)”, “resuspending them” for “resuspended”

[2] = Decomposition of O3 under aqueous conditions; type: physicochemical; settings: PBS pH 7.4, 22° C., OD 260 nm
Protocol: The rate of decomposition of O3 under the aqueous conditions employed was measured by the following method. Ozone, produced by a passage of O2 through a Polymetrics ozonizer, was bubbled for 2 min through a phosphate buffered saline (PBS, pH 7.4) solution in a quartz cuvette (1 cm^2) at room temperature. The time-dependent change in optical density was then measured at 260 nm (ε=2,700 M^−1 cm^−1) for at least 5 half lives in a Hitachi u.v./vis spectrophotometer equipped with a thermostatted rack at 22° C. See Takeuchi et al., Anal. Chim. Acta. 230, 183 (1990). […] The sensitivity of the assay was limited by spectrophotometer accuracy to±0.1% (˜1 μM) of the OD at t=0.

Molecule: bovine serum albumin: non-specific protein control
- bacterial killing (E. coli; 20 μM): no bacterial killing
- bacterial killing (S. typhimurium; 20 μM): no bacterial killing

Molecule: β-galactosidase: most efficient non-immunoglobulin protein at generating H2O2
- H2O2 photo-production ([1]; near-UV irradiation, from its 39 Trp residues): 5.9 mol eq.

Molecule: N[C@@H](Cc1c[nH]c2ccccc12)C(=O)O [tryptophan]
- H2O2 production during photo-oxidation ([1]; near-UV irradiation, tryptophan 20 μM): ca. 0.5 mole equivalents

Molecule: O=C(O)CN(CCN(CC(=O)O)CC(=O)O)CC(=O)O [EDTA]
- effect on survival of bacteria in the assay system (E. coli; 2 mM): no effect on the survival of bacteria
- effect on survival of bacteria in the assay system (S. typhimurium; 2 mM): no effect on the survival of bacteria

Molecule: superoxide dismutase: enzyme from Sigma, non-immunoglobulin control protein
- ability to reduce 1O2 (produce reactive oxygen species from singlet oxygen), panel of other proteins [1]: do not reduce ^1O2; also recorded: does not reside
- rate of hydrogen peroxide generation ([1]; superoxide dismutase irradiated in PBS): the same as irradiation of PBS alone

Molecule: CC1=C(CCC(=O)O)c2cc3[nH]c(cc4nc(cc5[nH]c(cc1n2)c(C)c5C(C)O)C(C)=C4C(C)O)c(C)c3CCC(=O)O (centres unmarked) [hematoporphyrin IX]
- bactericidal activity of sensitizer alone (E. coli XL1-blue; 40 μM, white light 2.7 mW cm^−2, 1 h, PBS pH 7.4, 4±1° C.): negligible bactericidal activity
- bactericidal activity of sensitizer alone (E. coli O112a,c): negligible bactericidal activity

Molecule: chick ovalbumin: chick-egg ovalbumin
- ability to reduce 1O2 (produce reactive oxygen species from singlet oxygen), panel of other proteins [1]: one of the most efficient proteins at reducing ^1O2

Molecule: catalase
- protection against the bactericidal activity of non-specific antibodies (E. coli XL1-blue; FIG. 17A, catalase 13 mU/mL): complete protection
- effect on bactericidal activity of non-specific antibodies (E. coli; catalase 13 mU/mL, 11 non-specific murine monoclonal antibodies): completely attenuated

Molecule: O=[O+][O-] [Clone O3, ozone]
- half-life (t½) [2]: 66 s
- half-life (t½) ([2]; listed as ozone): 6 s

B1: RNase A: ribonuclease, non-immunoglobulin control protein (protein, UniProt P61823 27-150, looked up)
Ribonuclease pancreatic: KETAAAKFERQHMDSSTSAASSSNYCNQMMKSRNLTKDRCKPVNTFVHESLADVQAVCSQKNVACKNGQTNCYQSYSTMSITDCRETGSSKYPNCAYKTTQANKHIIVACEGNPYVPVHFDASV
- ability to reduce 1O2 (produce reactive oxygen species from singlet oxygen), panel of other proteins [1]: do not reduce ^1O2
- ability to reduce 1O2 (produce reactive oxygen species from singlet oxygen), panel of other proteins ([1]; listed as RNaseA): does not reside
